Reference: the Kinase Knowledgebase extract (Sharma et al. 2016)

Molecular target: CDK2 (human) (UniProt P24941)
Test: Enzyme Assay

| Ki | SMILES |
| --- | --- |
| < 1 µM | O=c1[nH][nH]c2cc(NC3CCCC(Nc4ccccn4)C3)ccc12 (stereo not drawn) |
| < 1 µM | O=c1[nH][nH]c2ccc(-c3nc(Nc4cc(C5CC5)[nH]n4)c4ccccc4n3)c(C(F)(F)F)c12 |
| < 1 µM | Nc1ncc2c(Nc3n[nH]c4ccccc34)nc(-c3ccc4[nH][nH]c(=O)c4c3C(F)(F)F)nc2n1 |
| < 1 µM | Nc1ccc(Nc2ccc3c(=O)[nH][nH]c3c2)nc1Nc1cc(C2CC2)[nH]n1 |
| < 1 µM | Cn1cnc(NC2CCC(c3ccc4[nH][nH]c(=O)c4c3)C2)c1 (stereo not drawn) |
| < 1 µM | O=c1[nH][nH]c2cc(CCCONc3ccccn3)ccc12 |
| < 1 µM | Cn1cnc(NC2CCCC2CSc2ccc3c(=O)[nH][nH]c3c2)c1 (stereo not drawn) |
| < 1 µM | Cn1cnc(NC(=O)CC(=O)Oc2ccc3c(=O)[nH][nH]c3c2)c1 |
| < 1 µM | Cc1cc(Nc2nc(-c3c(C)cc4[nH][nH]c(=O)c4c3C)nc3ccccc23)n[nH]1 |
| < 1 µM | O=C(CCNc1ccccn1)Nc1ccc2c(=O)[nH][nH]c2c1 |
| < 1 µM | O=c1[nH][nH]c2cc(CCCCNc3nccnn3)ccc12 |
| < 1 µM | O=c1[nH][nH]c2ccc(C3CCC(Nc4cc(C5CC5)[nH]n4)C3)cc12 (stereo not drawn) |
| < 1 µM | Cc1cc(Nc2nc(Nc3ccc4c(=O)[nH][nH]c4c3)nc3c2CCNC3)n[nH]1 |
| < 1 µM | O=c1[nH][nH]c2cc(Nc3cc(Nc4n[nH]c5ccccc45)ccn3)ccc12 |
| < 1 µM | Cc1cc(Nc2ccnc(Oc3ccc4c(=O)[nH][nH]c4c3)c2)n[nH]1 |
| < 1 µM | Cc1cnc(NCCC(=O)Oc2ccc3c(=O)[nH][nH]c3c2)s1 |
| < 1 µM | COc1ccc(-c2cc(Nc3cc(C)[nH]n3)nc(Oc3ccc4c(=O)[nH][nH]c4c3)n2)cc1 |
| < 1 µM | O=c1[nH][nH]c2cc(CCC3COCC(Nc4ccccn4)C3)ccc12 (stereo not drawn) |
| < 1 µM | CC(C)(C)c1cc(Nc2cc(-c3cccc([N+](=O)[O-])c3)nc(Nc3ccc4c(=O)[nH][nH]c4c3)n2)n[nH]1 |
| < 1 µM | O=c1[nH][nH]c2cc(CC3CCCC(Nc4cc(C5CC5)[nH]n4)C3)ccc12 (stereo not drawn) |
| < 1 µM | O=c1[nH][nH]c2cc(CSc3cc(Nc4n[nH]c5ccccc45)ccn3)ccc12 |
| < 1 µM | Cc1cc(Nc2nc(C3(c4ccc5c(=O)[nH][nH]c5c4)CC3)nc3ccccc23)n[nH]1 |
| < 1 µM | CC(C)c1cc(Nc2nc(Nc3ccc4c(=O)[nH][nH]c4c3)nc3ccccc23)n[nH]1 |
| < 1 µM | Cn1cnc(NC2CCCC(Oc3ccc4c(=O)[nH][nH]c4c3)C2)c1 (stereo not drawn) |
| < 1 µM | O=c1[nH][nH]c2cc(Oc3nc(Nc4cc(C5CC5)[nH]n4)cc(N4CCOCC4)n3)ccc12 |

| Ki | SMILES |
| --- | --- |
| < 1 µM | O=c1[nH][nH]c2cc(Nc3nc(Nc4n[nH]c5ccccc45)c4ccccc4n3)ccc12 |
| < 1 µM | Cc1cc(Nc2nc(Nc3ccc4c(=O)[nH][nH]c4c3)nc3c2CCCC3)n[nH]1 |
| < 1 µM | O=c1[nH][nH]c2ccc(-c3nc(Nc4n[nH]c5cccc(Cl)c45)c4ccccc4n3)c(C(F)(F)F)c12 |
| < 1 µM | O=c1[nH][nH]c2ccc(-c3nc(Nc4cc(C5CCCC5)[nH]n4)c4ccccc4n3)cc12 |
| < 1 µM | Cc1cc(Nc2cc(NCCN(C)C)nc(Sc3ccc4c(=O)[nH][nH]c4c3)n2)n[nH]1 |
| < 1 µM | O=c1[nH][nH]c2cc(COCc3cc4ccccc4c(Nc4cc(C5CC5)[nH]n4)n3)ccc12 |
| < 1 µM | O=c1[nH][nH]c2cc(CCC3CCCC3Nc3ccccn3)ccc12 (stereo not drawn) |
| < 1 µM | CN1CCN(c2cc(Nc3cc(C4CC4)[nH]n3)nc(Oc3ccc4c(=O)[nH][nH]c4c3)n2)CC1 |
| < 1 µM | O=c1[nH][nH]c2cc(Nc3ccc([N+](=O)[O-])c(Nc4cc(C5CC5)[nH]n4)n3)ccc12 |
| < 1 µM | O=c1[nH][nH]c2cc(Nc3nc(Nc4cc(-c5ccco5)[nH]n4)c4ccccc4n3)ccc12 |
| < 1 µM | CNc1cnc(-c2ccc3[nH][nH]c(=O)c3c2C(F)(F)F)nc1Nc1n[nH]c2ccccc12 |
| < 1 µM | O=c1[nH][nH]c2cc(COc3cc(Nc4n[nH]c5ccccc45)c4ccccc4n3)ccc12 |
| < 1 µM | O=c1[nH][nH]c2cc(Cl)c(-c3cc(Nc4cc(C5CC5)[nH]n4)c4ccccc4n3)cc12 |
| < 1 µM | Cc1cnc(Oc2ccc3c(=O)[nH][nH]c3c2)nc1Nc1cc(C2CC2)[nH]n1 |
| < 1 µM | Cc1cc(Nc2ccnc(Nc3ccc4c(=O)[nH][nH]c4c3)c2)n[nH]1 |
| < 1 µM | Cn1cnc(NCCONc2ccc3c(=O)[nH][nH]c3c2)c1 |
| < 1 µM | O=c1[nH][nH]c2cc(NCC3CCCC3Nc3ccccn3)ccc12 (stereo not drawn) |
| < 1 µM | O=c1[nH][nH]c2cc(C(F)(F)F)c(-c3cc(N4CCCCC4)cc(Nc4n[nH]c5ccccc45)n3)cc12 |
| < 1 µM | Cn1cnc(NC2COCC(Oc3ccc4c(=O)[nH][nH]c4c3)C2)c1 (stereo not drawn) |
| < 1 µM | O=c1[nH][nH]c2cc(NCCC(Nc3ccccn3)c3ccccc3)ccc12 (stereo not drawn) |
| < 1 µM | Cc1cnc(NCCC(Cc2ccccc2)Nc2ccc3c(=O)[nH][nH]c3c2)s1 (stereo not drawn) |
| < 1 µM | O=C(CCNc1ccc2c(=O)[nH][nH]c2c1)Nc1ccccn1 |
| < 1 µM | Cc1cnc(NC2COCC(Sc3ccc4c(=O)[nH][nH]c4c3)C2)s1 (stereo not drawn) |
| < 1 µM | Cc1cc(Nc2nc(-c3ccc4[nH][nH]c(=O)c4c3)cc3ccccc23)n[nH]1 |
| < 1 µM | O=c1[nH][nH]c2cc(OCCC(Nc3cc(C4CC4)[nH]n3)c3ccccc3)ccc12 (stereo not drawn) |

| Ki | SMILES |
| --- | --- |
| < 1 µM | O=c1[nH][nH]c2cc(C3(C4CCCC(Nc5ccccn5)C4)CC3)ccc12 (stereo not drawn) |
| < 1 µM | Cn1cnc(NC2CCC(Sc3ccc4c(=O)[nH][nH]c4c3)C2)c1 (stereo not drawn) |
| < 1 µM | Cn1cnc(NCCC(Cc2ccccc2)Sc2ccc3c(=O)[nH][nH]c3c2)c1 (stereo not drawn) |
| < 1 µM | Cc1cc(Nc2cc(-c3c(C)cccc3C)nc(Sc3ccc4c(=O)[nH][nH]c4c3)n2)n[nH]1 |
| < 1 µM | O=c1[nH][nH]c2cc(C(F)(F)F)c(-c3cc4cccnc4c(Nc4nc[nH]n4)n3)cc12 |
| < 1 µM | Cn1cnc(NC2COCC(Nc3ccc4c(=O)[nH][nH]c4c3)C2)c1 (stereo not drawn) |
| < 1 µM | Cc1cnc(NCCCNc2ccc3c(=O)[nH][nH]c3c2)s1 |
| < 1 µM | Cc1cc(Nc2nc(-c3ccc4[nH][nH]c(=O)c4c3)nc3ccsc23)n[nH]1 |
| < 1 µM | Cc1cc(Nc2cc(C(=O)N3CCN(C)CC3)nc(Sc3ccc4c(=O)[nH][nH]c4c3)n2)n[nH]1 |
| < 1 µM | O=c1[nH][nH]c2cc(SC3CCCC(Nc4nccnn4)C3)ccc12 (stereo not drawn) |
| < 1 µM | O=c1[nH][nH]c2cc(Nc3cc4ccccc4c(Nc4cc(C5CC5)[nH]n4)n3)ccc12 |
| < 1 µM | O=c1[nH][nH]c2cc(OCCC(Nc3nccnn3)c3ccccc3)ccc12 (stereo not drawn) |
| < 1 µM | Cc1cnc(NC2CCCC2COc2ccc3c(=O)[nH][nH]c3c2)s1 (stereo not drawn) |
| < 1 µM | CN1CCC(OCc2cc(Nc3cc(C4CC4)[nH]n3)nc(Sc3ccc4c(=O)[nH][nH]c4c3)n2)CC1 |
| < 1 µM | CN1CCN(C(=O)c2cc(Nc3nc(-c4ccc5[nH][nH]c(=O)c5c4)nc4ccccc34)n[nH]2)CC1 |
| < 1 µM | O=c1[nH][nH]c2cc(NC3CCC(Nc4ccccn4)C3)ccc12 (stereo not drawn) |
| < 1 µM | O=c1[nH][nH]c2cc(Nc3nc(Nc4cc(C5CC5)[nH]n4)cc(-c4ccccc4Cl)n3)ccc12 |
| < 1 µM | O=c1[nH][nH]c2cc(Sc3nc(Nc4cc(C5CC5)[nH]n4)cc(N4CCOCC4)n3)ccc12 |
| < 1 µM | O=c1[nH][nH]c2cc(Nc3nc(Nc4cc(C5CC5)[nH]n4)c4cc(N5CCCCC5)ccc4n3)ccc12 |
| < 1 µM | Cc1cc(Nc2nc(Nc3ccc4c(=O)[nH][nH]c4c3)nc3ccc(-c4ccccc4Cl)cc23)n[nH]1 |
| < 1 µM | CCc1cc(Nc2cc(C)[nH]n2)nc(CSc2ccc3[nH][nH]c(=O)c3c2)n1 |
| < 1 µM | O=c1[nH][nH]c2cc(SC(CCNc3nccnn3)Cc3ccccc3)ccc12 (stereo not drawn) |
| < 1 µM | Cc1nc(-c2ccc3[nH][nH]c(=O)c3c2C(F)(F)F)nc(Nc2n[nH]c(C(C)C)n2)c1C |
| < 1 µM | Cc1cnc(NC2CCCC2CNc2ccc3c(=O)[nH][nH]c3c2)s1 (stereo not drawn) |
| < 1 µM | O=c1[nH][nH]c2ccc(-c3nc(Nc4cc(-c5cccs5)[nH]n4)c4ccccc4n3)c(C(F)(F)F)c12 |

| Ki | SMILES |
| --- | --- |
| < 1 µM | O=c1[nH][nH]c2cc(SCCC(Nc3nccnn3)c3ccccc3)ccc12 (stereo not drawn) |
| < 1 µM | Cc1cnc(NC2CCC(c3ccc4[nH][nH]c(=O)c4c3)C2)s1 (stereo not drawn) |
| < 1 µM | O=c1[nH][nH]c2cc(Nc3ncc(-c4cccs4)c(Nc4cc(C5CC5)[nH]n4)n3)ccc12 |
| < 1 µM | Cc1cc(Nc2nc(Cc3ccc4c(=O)[nH][nH]c4c3)nc3c2CCN(Cc2ccccc2)C3)n[nH]1 |
| < 1 µM | O=c1[nH][nH]c2ccc(C3COCC(Nc4cc(C5CC5)[nH]n4)C3)cc12 (stereo not drawn) |
| < 1 µM | O=c1[nH][nH]c2cc(Cc3nc(Nc4cc(C5CC5)[nH]n4)c4ccccc4n3)ccc12 |
| < 1 µM | Cn1cnc(NCCC(=O)Oc2ccc3c(=O)[nH][nH]c3c2)c1 |
| < 1 µM | O=c1[nH][nH]c2cc(Sc3cc4ccccc4c(Nc4n[nH]c5ccccc45)n3)ccc12 |
| < 1 µM | Cn1cnc(NCCCOc2ccc3c(=O)[nH][nH]c3c2)c1 |
| < 1 µM | Cc1nc(-c2ccc3[nH][nH]c(=O)c3c2Cl)nc(Nc2n[nH]c(C3CCCC3)n2)c1C |
| < 1 µM | COc1c(-c2nc(Nc3cc(C)[nH]n3)c3ccccc3n2)ccc2[nH][nH]c(=O)c12 |
| < 1 µM | Cn1cnc(NC2CCCC(c3ccc4[nH][nH]c(=O)c4c3)C2)c1 (stereo not drawn) |
| < 1 µM | Cc1cc(Nc2cc(C)[nH]n2)nc(Cc2ccc3c(=O)[nH][nH]c3c2)n1 |
| < 1 µM | Cc1cc(Nc2nc(CCc3ccc4[nH][nH]c(=O)c4c3)nc3c2CCCC3)n[nH]1 |
| < 1 µM | CN(C)CCNC(=O)c1cc(Nc2n[nH]c3ccccc23)nc(Sc2ccc3c(=O)[nH][nH]c3c2)n1 |
| < 1 µM | O=c1[nH][nH]c2cc(NCCC(Nc3nccnn3)c3ccccc3)ccc12 (stereo not drawn) |
| < 1 µM | Cc1cc(Nc2nc(COc3ccc4c(=O)[nH][nH]c4c3)nc3c2CNCC3)n[nH]1 |
| < 1 µM | CSc1n[nH]c(Nc2nc(Nc3ccc4c(=O)[nH][nH]c4c3)ccc2[N+](=O)[O-])n1 |
| < 1 µM | O=c1[nH][nH]c2cc(C(F)(F)F)c(-c3nc4c(c(Nc5n[nH]c6ccc(F)cc56)n3)OCCCC4)cc12 |
| < 1 µM | O=c1[nH][nH]c2ccc(-c3nc(Nc4n[nH]c5cc(=O)n(-c6ccccc6)nc45)c4ccccc4n3)c(C(F)(F)F)c12 |
| < 1 µM | O=c1[nH][nH]c2cc(OC3COCC(Nc4nccnn4)C3)ccc12 (stereo not drawn) |
| < 1 µM | Cc1nc(-c2cc3c(=O)[nH][nH]c3cc2Cl)cc(Nc2n[nH]c3ccc(F)cc23)c1C |
| < 1 µM | Nc1c(Nc2ccc3c(=O)[nH][nH]c3c2)ncnc1Nc1cc(C2CC2)[nH]n1 |
